From the OligoGym collection come the findings set out here.

Several values for one entry are separate records, joined by “and”; a condition that tells them apart may be missing. Identical values can stand only once. After the bases stand the sugars from the 5' end (letter, count) and the backbone: PS all phosphorothioate, else s phosphorothioate and o phosphodiester by linkage. Methylation of C is not given here. e = 2'-O-(2-methoxyethyl) (MOE); k = constrained ethyl (cEt); d = 2'-deoxy (DNA)

In the data set the target is IRF4. To be noted: ASO.

GCTCCTGAGACAGACT (sugars k3 d10 k3, PS): the target mRNA inhibition (SK-MEL-28, 4 µM) came out at 56%. Still for that read-out and setting: in the case of GCTCACTATTAAACAG (sugars k3 d10 k3, PS) it was -12%; in that of GGGTAAAGGAGTGCAG (sugars k3 d10 k3, PS), 19%. “TGGGATTATATACTGG (sugars kdddddddddkekeke, PS)”: under “MM.1R, 1 µM”, the target mRNA inhibition stood at 40%. With GGGCAAGATGAGAATT (sugars k3 d10 k3, PS), under “SK-MEL-28, 4 µM”, the target mRNA inhibition was 0%. With ATTTCCGGGTGTGGCT (sugars k3 d10 k3, PS), the target mRNA inhibition (MM.1R, 1 µM) was 7%. For the sequence TATCAGATACACACCC (sugars k3 d10 k3, PS), the target mRNA inhibition (SK-MEL-28, 4 µM) turned out to be 19%. The same measure, in the same setting: under GGGAGATCCGGCAGCC (sugars k3 d10 k3, PS) stands -10%.

For the sequence “ACTGCTTGAGGTTTTC (sugars kddddddddddkekek, PS)”, the target mRNA inhibition (MM.1R, 1 µM) was found to be 22%. As to TGAAGCAACACGGGAA (sugars k3 d10 k3, PS), the target mRNA inhibition (SK-MEL-28, 4 µM) came to 60%. For AGTCAATCACTGGAGA (sugars k3 d10 k3, PS), the target mRNA inhibition (MM.1R, 0.0625 µM) was 1% and -8%; the target mRNA inhibition (MM.1R, 0.074 µM) amounted to 0%; the target mRNA inhibition (MM.1R, 0.222 µM) was -15%; the target mRNA inhibition (MM.1R, 0.25 µM) is 4% and 5%; the target mRNA inhibition (MM.1R, 0.666 µM) was -7%; the target mRNA inhibition (MM.1R, 1 µM) is 16% and 22%. Further, the target mRNA inhibition is 9% (MM.1R, 2 µM); 40% and 45% (MM.1R, 4 µM); 60% (SK-MEL-28, 4 µM).

Take AGTGAAGTCGGGAGAT (sugars k3 d10 k3, PS): the target mRNA inhibition (MM.1R, 1 µM) is 8%. For ATGTATACCAACGACA (sugars k3 d10 k3, PS), under “SK-MEL-28, 4 µM”, the target mRNA inhibition amounted to 63%. “ACAGTGACTTGCATCC (sugars kddddddddddkekek, PS)”: the target mRNA inhibition (MM.1R, 1 µM) was -5%.

AGCTCCTACATACATT (sugars k3 d10 k3, PS): the target mRNA inhibition (SK-MEL-28, 4 µM) was 44%.

Consider ACACAGTCTGCTGCCC (sugars k3 d10 k3, PS), for which, for the setting “SK-MEL-28, 4 µM”, the target mRNA inhibition came out at 51%.

Take GAGCAAACCCTGCACT (sugars k3 d10 k3, PS): the target mRNA inhibition (SK-MEL-28, 4 µM) is -16%.

CCTGGGAGTAATAGTA (sugars k3 d10 k3, PS): under “SK-MEL-28, 4 µM”, the target mRNA inhibition stood at 53%. On to CCTGGGACTCAGGTGG (sugars k4 d8 k4, PS), for which the target mRNA inhibition (SK-MEL-28, 4 µM) was 7%.

For CACCTCTTCACTACCT (sugars k3 d10 k3, PS), the target mRNA inhibition (MM.1R, 1 µM) came out at 0%. For GCAAAACCCCTCAAGC (sugars k3 d10 k3, PS), for the setting “SK-MEL-28, 4 µM”, the target mRNA inhibition is 20%. The same measure, in the same setting: in the case of CTGCATCGAGATCAGT (sugars k3 d10 k3, PS) it was 52%. Regarding CTCTTCAGGCACCCAC (sugars k3 d10 k3, PS), the target mRNA inhibition (MM.1R, 1 µM) came out at 13%.

Regarding “AGTTGTAAATGAGTCG (sugars k2 d9 e3 k2, PS)”, the target mRNA inhibition runs as follows: (H929, 0.04 µM) 57% and 42%; (KMS11, 0.2 µM) 86% and 92%; (MM.1R, 0.074 µM) 10%; (MM.1R, 0.222 µM) 25%; (MM.1R, 0.666 µM) 55%; (MM.1R, 1 µM) 66%. The target mRNA inhibition (MM.1R, 2 µM) is 77%. In the case of GACAAGAACTGCTGTG (sugars k3 d10 k3, PS), the target mRNA inhibition (SK-MEL-28, 4 µM) was 15%.

Regarding GCACAGAACACCTGAT (sugars k3 d10 k3, PS), the target mRNA inhibition (SK-MEL-28, 4 µM) was 56%. Consider CCCTAGATAACATGAG (sugars k3 d10 k3, PS), for which the target mRNA inhibition (SK-MEL-28, 4 µM) was 17%. Turning to CACCAATGGCAGCACC (sugars k3 d10 k3, PS), the target mRNA inhibition (MM.1R, 1 µM) stood at 16%. Consider CCCACGAAGGGCAGTG (sugars k3 d10 k3, PS), for which the target mRNA inhibition (SK-MEL-28, 4 µM) is 35%. Take TCAGAATGTTTCGACA (sugars k3 d10 k3, PS): the target mRNA inhibition (MM.1R, 1 µM) turned out to be 6%. As for AGCCAGAGGTTCGCTG (sugars k3 d10 k3, PS), where the note is “SK-MEL-28, 4 µM”, the target mRNA inhibition came out at 25%. GAGGAATGGCGGATAG (sugars k3 d10 k3, PS): where the note is “SK-MEL-28, 4 µM”, the target mRNA inhibition is 31%. Still for that read-out and setting: under ACTGACCTTTACTTCA (sugars k3 d10 k3, PS) stands 43%. Same read-out and setting: under ATAGATCTGTGGTAAT (sugars k3 d10 k3, PS) stands 38%. In the case of “TAGTATGAGAAACGGC (sugars k2 d9 e3 k2, PS)”, the target mRNA inhibition (MM.1R, 1 µM) is 37%. For AATAAGCAGAAACAGC (sugars k4 d8 k4, PS), the target mRNA inhibition (SK-MEL-28, 4 µM) was 39%.

Turning to GCAGTGATGTCAGGTT (sugars k3 d10 k3, PS), for the setting “MM.1R, 1 µM”, the target mRNA inhibition turned out to be 39%. Turning to TAGCAAATGGCAAGTT (sugars k3 d10 k3, PS), for the setting “SK-MEL-28, 4 µM”, the target mRNA inhibition amounted to 17%. CGTAGCCCCTCAGGAA (sugars k3 d10 k3, PS): for the setting “MM.1R, 4 µM”, the target mRNA inhibition is 81% and 59%. For AAGCATTTTATCATCC (sugars k3 d10 k3, PS), the target mRNA inhibition (MM.1R, 1 µM) turned out to be 25%.

As for GAAGAGTTGGCGGTGG (sugars k3 d10 k3, PS), the target mRNA inhibition (SK-MEL-28, 4 µM) came to 15%.

For the sequence CACATAATCCAGTATC (sugars k3 d10 k3, PS), the target mRNA inhibition (SK-MEL-28, 4 µM) is 43%. As for TGTGACATAAAGGACC (sugars k3 d10 k3, PS), the target mRNA inhibition (SK-MEL-28, 4 µM) came out at 27%. Still for that read-out and setting: in the case of ATCTAAGGCAAGCTGA (sugars k3 d10 k3, PS) it was 37%. Regarding TACTGTTACCGATGCT (sugars k3 d10 k3, PS), the target mRNA inhibition runs as follows: (MM.1R, 0.0625 µM) -6%; (MM.1R, 0.25 µM) -4%; (MM.1R, 1 µM) 37% and 18%; (MM.1R, 4 µM) 38%. For the sequence TCTGACAAGAACTGCT (sugars k3 d10 k3, PS), the target mRNA inhibition (SK-MEL-28, 4 µM) is 12%. On the same count and under the same terms, in the case of ATGAGAAACGGCCTGG (sugars k3 d10 k3, PS) it was 64%; in that of GCCAAGACCAGCTCTT (sugars k3 d10 k3, PS), 30%; in that of ACCTTTTTTGGCTCCC (sugars k4 d8 k4, PS), 19%.

As for GGGACCCACGGACGGA (sugars k3 d10 k3, PS), for the setting “SK-MEL-28, 4 µM”, the target mRNA inhibition worked out at 9%. Take “TGATGTGATAGCTGAG (sugars kkdddddddddkekek, PS)”: under “MM.1R, 1 µM”, the target mRNA inhibition was -2%. On to CAAGGAGATCCACCTG (sugars k3 d10 k3, PS), for which the target mRNA inhibition (SK-MEL-28, 4 µM) is -21%.

As to GGCAACCTGCATTTGC (sugars k4 d8 k4, PS), the target mRNA inhibition (SK-MEL-28, 4 µM) is -12%. Take CGAAAACAGCCGCCGG (sugars k3 d10 k3, PS): the target mRNA inhibition (SK-MEL-28, 4 µM) stood at 15%. Take “CTCTATAGTGTTCCAG (sugars kkdddddddddkdkdk, PS)”: the target mRNA inhibition (MM.1R, 1 µM) came out at 31%. Turning to TAGGTCATACCCTGGA (sugars k3 d10 k3, PS), the target mRNA inhibition (SK-MEL-28, 4 µM) worked out at 72%. Still for that read-out and setting: in the case of CCAAAGGCTCCCGACA (sugars k3 d10 k3, PS) it was 29%.

Consider TGAAGTGCTGTGTGGG (sugars k3 d10 k3, PS), for which, where the note is “SK-MEL-28, 4 µM”, the target mRNA inhibition came to 57%. Same read-out and setting: under TGGGAATCCTTAATTA (sugars k3 d10 k3, PS) stands 12%; under TCTTTGGGATTCTATA (sugars k3 d10 k3, PS), 60%; under AAAGTAACTGACACGC (sugars k3 d10 k3, PS), 67%. Take “GATTATATACTGGTTG (sugars kkddddddddddkeke, PS)”: the target mRNA inhibition (MM.1R, 1 µM) stood at 45%.

Consider “TGTAGTATGAGAAACG (sugars k3 d9 k3 e1, PS)”, for which, under “MM.1R, 1 µM”, the target mRNA inhibition was 33%.

For the sequence TAATTTTAAGGCCCTG (sugars k3 d10 k3, PS), the target mRNA inhibition (SK-MEL-28, 4 µM) was found to be 39%. Same read-out and setting: in the case of GGGCATGTAAAACATA (sugars k3 d10 k3, PS) it was 23%. For “GTGATGTCAGGTTTTC (sugars kkddddddddddkeke, PS)”, for the setting “MM.1R, 1 µM”, the target mRNA inhibition was found to be 18%. Same read-out and setting: in the case of CATTAGCAATTAGCTC (sugars k3 d10 k3, PS) it was -37%. In the case of GACATTGGTACGGGAT (sugars k3 d10 k3, PS), the target mRNA inhibition (SK-MEL-28, 4 µM) was determined as 36%. As to GAATCTTGGCAGGGAG (sugars k3 d10 k3, PS), the target mRNA inhibition (MM.1R, 1 µM) was 0%. On to AGATTTACACCGTTGC (sugars k3 d10 k3, PS), for which the target mRNA inhibition (MM.1R, 1 µM) is 30%.

Take GAAACGAGCCAGTGCA (sugars k3 d10 k3, PS): the target mRNA inhibition (SK-MEL-28, 4 µM) worked out at 52%. On the same count and under the same terms, in the case of CTAGAACATGATGAGA (sugars k3 d10 k3, PS) it was 29%. Regarding “CTGTTACCGATGCTTC (sugars kkdddddddddekeke, PS)”, the target mRNA inhibition (MM.1R, 1 µM) is 50% and 60%. Still for that read-out and setting: in the case of ACTCTTAGGCACATCA (sugars k3 d10 k3, PS) it was 27%. For TCCAAACCTTAAGCTA (sugars k3 d10 k3, PS), the target mRNA inhibition (SK-MEL-28, 4 µM) was found to be 37%. Consider CCCCGAATAGGACCCC (sugars k3 d10 k3, PS), for which the target mRNA inhibition (SK-MEL-28, 4 µM) turned out to be 56%. Turning to CGCCAGGCCGGCTAGG (sugars k3 d10 k3, PS), the target mRNA inhibition (SK-MEL-28, 4 µM) is 10%. Take “TTGGTTGGCTGGTCTT (sugars kddddddddddkekek, PS)”: the target mRNA inhibition (MM.1R, 1 µM) worked out at 34%. For the sequence “AGCATTTTATCATCCG (sugars k2 d9 e3 k2, PS)”, the target mRNA inhibition (MM.1R, 1 µM) was determined as 28%. As to “GACACTTTTAGAGAGG (sugars kkddddddddddkeke, PS)”, the target mRNA inhibition (MM.1R, 1 µM) is 9%.

“CCTCAGTTTGTGAAGC (sugars kkdddddddddkdkdk, PS)”: the target mRNA inhibition (MM.1R, 1 µM) came out at 8%. With TCAGCAAGTGTCTTCC (sugars k3 d10 k3, PS), the target mRNA inhibition (SK-MEL-28, 4 µM) turned out to be 66%. As to CCAGGGTGAGCTGCTT (sugars k3 d10 k3, PS), where the note is “SK-MEL-28, 4 µM”, the target mRNA inhibition was determined as 31%. On the same count and under the same terms, in the case of TCTAATCCACAATCAG (sugars k3 d10 k3, PS) it was 41%; in that of TGGTAGGTAGGCACCT (sugars k3 d10 k3, PS), 35%.

On to GTGATGTCAGGTTTTC (sugars k3 d10 k3, PS), for which the target mRNA inhibition runs as follows: (MM.1R, 0.074 µM) 11%; (MM.1R, 0.222 µM) 38%; (MM.1R, 0.666 µM) 66%; (MM.1R, 1 µM) 66%; (MM.1R, 2 µM) 90%.
